ChEMBL document CHEMBL1131597, “Discovery and development of the novel potent orally active thrombin inhibitor N-(9-hydroxy-9-fluorenecarboxy)prolyl trans-4-aminocyclohexylmethyl amide (L-372,460): coapplication of structure-based design and rapid multiple analogue synthesis on solid support” (J Med Chem, 1998)

How the values were obtained:
Prothrombin [1] = molecular target: T1, Prothrombin (Homo sapiens, UniProt P00734); assay: Inhibition of thrombin-catalyzed hydrolysis of a standard substrate
Prothrombin [2] = molecular target: T1, Prothrombin; assay: Binding affinity towards thrombin was determined
Serine protease 1 = Serine protease 1 (Homo sapiens, UniProt P07477); assay: Binding affinity towards trypsin was determined
Sequence of Serine protease 1 (P07477 whole entry): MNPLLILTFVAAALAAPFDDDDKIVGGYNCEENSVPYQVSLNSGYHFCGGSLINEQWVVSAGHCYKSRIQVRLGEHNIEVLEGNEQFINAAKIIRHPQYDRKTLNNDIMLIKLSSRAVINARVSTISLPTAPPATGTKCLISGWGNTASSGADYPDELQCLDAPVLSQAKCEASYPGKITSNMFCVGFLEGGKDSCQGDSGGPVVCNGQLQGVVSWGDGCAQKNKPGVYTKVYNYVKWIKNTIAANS

Compound	IC50 (Prothrombin [1]) [nM]	Ki (Prothrombin [2]) [nM]	Ki (Serine protease 1) [nM]
NC1CCC(CNC(=O)[C@@H]2CCCN2C(=O)C2CC2(c2ccccc2)c2ccccc2)CC1 (some centres not stated)	190	–	–
NC1CCC(CNC(=O)[C@@H]2CCCN2C(=O)C2CCc3ccccc3C2)CC1 (some centres not stated)	910	–	–
CN[C@H](Cc1ccccc1)C(=O)N1CCC[C@H]1C(=O)NC[C@H]1CC[C@H](N)CC1	6	4.9	–
N#C/C(=C\c1ccccc1)C(=O)N1CCC[C@H]1C(=O)NCC1CCC(N)CC1 (some centres not stated)	140	–	–
NC1CCC(CNC(=O)[C@@H]2CCCN2C(=O)C(Cc2ccc(O)cc2)c2ccccc2)CC1 (some centres not stated)	10	2.5	–
NC1CCC(CNC(=O)[C@@H]2CCCN2C(=O)C2COc3ccccc3O2)CC1 (some centres not stated)	100	75	–
COc1cc(C(O)C(=O)N2CCC[C@H]2C(=O)NCC2CCC(N)CC2)ccc1O (some centres not stated)	11	2.5	–
N[C@H]1CC[C@H](CNC(=O)[C@@H]2CCCN2C(=O)C2(O)c3ccccc3-c3ccccc32)CC1	4	–	860
NC1CCC(CNC(=O)[C@@H]2CCCN2C(=O)C2c3ccccc3-c3ccccc32)CC1 (some centres not stated)	380	–	–
CN1C(=O)C[C@@H](c2cccnc2)[C@@H]1C(=O)N1CCC[C@H]1C(=O)NCC1CCC(N)CC1 (some centres not stated)	60	–	–

The remaining compounds from weak to strong by IC50 (Prothrombin [1]), led by results:

IC50 (Prothrombin [1]) [nM]	Compound	Ki (Prothrombin [2]) [nM]	Ki (Serine protease 1) [nM]
230	COc1ccccc1CCC(=O)N1CCC[C@H]1C(=O)NCC1CCC(N)CC1 (some centres not stated)	–	–
120	NC1CCC(CNC(=O)[C@@H]2CCCN2C(=O)C23CC4CC(CC(C4)C2)C3)CC1 (some centres not stated)	–	–
106	NC1CCC(CNC(=O)[C@@H]2CCCN2C(=O)CC2c3ccccc3-c3ccccc32)CC1 (some centres not stated)	–	–
90	NC1CCC(CNC(=O)[C@@H]2CCCN2C(=O)C2CC(=O)N3CCc4ccccc4C23)CC1 (some centres not stated)	–	–
57	NC1CCC(CNC(=O)[C@@H]2CCCN2C(=O)C(Cc2ccccc2)c2ccccc2)CC1 (some centres not stated)	–	–
50	COc1cc(CC(=O)N2CCC[C@H]2C(=O)NCC2CCC(N)CC2)cc(OC)c1OC (some centres not stated)	–	–
5	CCCCC(CC(=O)N1CCC[C@H]1C(=O)NCC1CCC(N)CC1)c1ccccc1 (some centres not stated)	–	–
